# Results published in patent US20100174065A1, “COMPOUNDS” (GLAXO GROUP LIMITED, priority 2007, published 2010).
# pEC50: −log10 of the molar value. Where a name gives a salt, the structure may show the parent alone.
# Target: T1, human S1P1 receptor (Homo sapiens, UniProt P21453)
# T1 construct: expressed in transfected cells; membranes
# Assay: S1P1 GTPγS assay
# Format: biochemical
# Conditions: agonist activity, [35S]-GTPγS binding, human S1P1 rat hepatoma membranes
# Protocol: (§1) For membrane preparations all steps were performed at 4° C. Rat hepatoma cells stably expressing the human S1P1 receptor or Rat Basophilic Leukaemia cells (RBL) stably expressing human S1P3 receptor were grown to 80% confluency before being harvested into 10 ml Phospho-Buffered Saline (PBS) and centrifuged at 1200 rpm for 5 minutes. After removal of the supernatant, the pellet was re-suspended and cells were homogenised within a glass Waring blender for 2 bursts of 15 secs in 200 mls of buffer (50 mM HEPES, 1 mM leupeptin, 25 μg/ml bacitracin, 1 mM EDTA, 1 mM PMSF, 2 μM pepstatin A). The blender was plunged into ice for 5 mins after the first burst and 10-40 mins after the final burst to allow foam to dissipate. The material was then spun at 500 g for 20 mins and the supernatant spun for 36 mins at 48,000 g. The pellet was resuspended in the same buffer as above but without PMSF and pepstatin A. The material was then forced through a 0.6 mm needle, made up to the required volume, (usually ×4 the volume of the original cell pellet), aliquoted and stored frozen at −80° C.
# as §1, with “All” for “For membrane preparations all”, “Cells” for “Rat hepatoma cells stably expressing the human S1P1 receptor or Rat Basophilic Leukaemia cells (RBL) stably expressing human S1P3 receptor were grown to 80% confluency before being harvested into 10 ml Phospho-Buffered Saline (PBS) and centrifuged at 1200 rpm for 5 minutes. After removal of the supernatant, the pellet was re-suspended and cells”
# Human S1P1 rat hepatoma membranes (1.5 μg/well) were adhered to a wheatgerm agglutinin (WGA)-coated scintillation proximity assay (SPA) beads (0.125 mg/well) in assay buffer (HEPES 20 mM, MgCl2 10 mM, NaCl 100 mM and pH adjusted to 7.4 using KOH 5M, GDP 10 μM FAC (final assay concentration) and saponin 90 μg/ml FAC was also added).
# After 30 minutes pre-coupling on ice the bead and membrane suspension was dispensed into a white Greiner polypropylene LV384-well plate ([…]), containing 0.1 μl of the compound. 5 μl/well [^355]-GTPγS (0.5 nM final radioligand conc) made up in assay buffer was then added to agonist plates. The final assay cocktail (10.1 μl) was then centrifuged at 1000 rpm for 5 minutes then read immediately on a Viewlux reader.
# All test compounds were dissolved in DMSO at a concentration of 10 mM and were prepared in 100% DMSO using a 1 in 4 dilution step to provide 11 point dose response curves. The dilutions were transferred to the assay plates ensuring that the DMSO concentration was constant across the plate for all assays.
# All data was normalized to the mean of 16 high and 16 low control wells on each plate. A four parameter curve fit was then applied.
# S1P1 expressing RH7777 membranes (1.5 μg/well) membranes (1.5 μg/well) were homogenised by passing through a 23G needle. These were then adhered to WGA-coated SPA beads (0.125 mg/well) in assay buffer (HEPES 20 mM, MgCl2 10 mM, NaCl 100 mM and pH adjusted to 7.4 using KOH 5M). GDP 10 μM FAC and saponin 90 μg/ml FAC were also added
# After 30 minutes precoupling on ice, the bead and membrane suspension was dispensed into white Greiner polypropylene LV 384-well plates (5 μl/well), containing 0.1 μl of compound. 5 μl/well [^35S]-GTPγS (0.5 nM for S1P1 or 0.3 nM for S1P3 final radioligand concentration) made in assay buffer was then added to the plates. The final assay cocktail (10.1 μl) was then sealed, spun on a centrifuge, then read immediately on a Viewlux instrument.
# T1 sequence (P21453 whole entry): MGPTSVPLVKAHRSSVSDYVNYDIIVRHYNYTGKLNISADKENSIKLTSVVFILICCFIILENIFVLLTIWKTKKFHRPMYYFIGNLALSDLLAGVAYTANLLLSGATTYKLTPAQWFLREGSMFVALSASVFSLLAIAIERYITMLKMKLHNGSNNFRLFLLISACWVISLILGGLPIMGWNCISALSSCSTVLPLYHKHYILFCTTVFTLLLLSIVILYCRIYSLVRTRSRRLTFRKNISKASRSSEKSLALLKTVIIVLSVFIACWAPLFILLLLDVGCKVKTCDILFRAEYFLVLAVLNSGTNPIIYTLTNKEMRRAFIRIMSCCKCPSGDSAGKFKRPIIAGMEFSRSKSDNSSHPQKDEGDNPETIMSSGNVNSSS
row,pEC50,SMILES
1,> 7.00,"CC(C)Oc1ccc(-c2nc(-c3ccc4c(c3)CCCN(CCC(=O)O)C4)no2)cc1C#N [Example 6, 3-[7-(5-{3-Cyano-4-[(1-methylethyl)oxy]phenyl}-1,2,4-oxadiazol-3-yl)-1,3,4,5-tetrahydro-2H-2-benzazepin-2-yl]propanoic acid hydrochloride]"
2,≥ 8.00,"CC(C)Oc1ccc(-c2nc(-c3cccc4c3CCNCC4)no2)cc1C#N [Example 7, 2-[(1-Methylethyl)oxy]-5-[3-(2,3,4,5-tetrahydro-1H-3-benzazepin-6-yl)-1,2,4-oxadiazol-5-yl]benzonitrile hydrochloride]"
3,> 7.00,"CC(C)Oc1ccc(-c2nc(-c3cccc4c3CCNCC4)no2)cc1Cl [Example 8, 6-(5-{3-Chloro-4-[(1-methylethyl)oxy]phenyl}-1,2,4-oxadiazol-3-yl)-2,3,4,5-tetrahydro-1H-3-benzazepine hydrochloride]"
4,> 7.00,"CC(C)Oc1ccc(-c2nc(-c3cccc4c3CCCN(CC(=O)O)C4)no2)cc1Cl [Example 12, [6-(5-{3-Chloro-4-[(1-methylethyl)oxy]phenyl}-1,2,4-oxadiazol-3-yl)-1,3,4,5-tetrahydro-2H-2-benzazepin-2-yl]acetic acid hydrochloride]"
5,> 7.00,"CC(C)Oc1ccc(-c2nc(-c3ccc4c(c3)CCNCC4)no2)cc1C#N [Example 18, 2-[(1-Methylethyl)oxy]-5-[3-(2,3,4,5-tetrahydro-1H-3-benzazepin-7-yl)-1,2,4-oxadiazol-5-yl]benzonitrile hydrochloride]"
6,> 7.00,"CC(C)Oc1ccc(-c2nc(-c3ccc4c(c3)CCNCC4)no2)cc1C(F)(F)F [Example 19, 7-{5-[4-[(1-Methylethyl)oxy]-3-(trifluoromethyl)phenyl]-1,2,4-oxadiazol-3-yl}-2,3,4,5-tetrahydro-1H-3-benzazepine hydrochloride]"
7,≥ 8.00,"CC(C)Oc1ccc(-c2nc(-c3ccc4c(c3)CCN(CCC(=O)O)CC4)no2)cc1Cl [Example 21, 3-[7-(5-{3-Chloro-4-[(1-methylethyl)oxy]phenyl}-1,2,4-oxadiazol-3-yl)-1,2,4,5-tetrahydro-3H-3-benzazepin-3-yl]propanoic acid]"
8,> 7.00,"CC(C)Oc1ccc(-c2nc(-c3ccc4c(c3)CCN(CC(=O)O)CC4)no2)cc1Cl [Example 22, [7-(5-{3-Chloro-4-[(1-methylethyl)oxy]phenyl}-1,2,4-oxadiazol-3-yl)-1,2,4,5-tetrahydro-3H-3-benzazepin-3-yl]acetic acid]"
9,≥ 8.00,"CC(C)Oc1ccc(-c2nc(-c3ccc4c(c3)CCN(CC(=O)O)CC4)no2)cc1C#N [Example 23, [7-(5-{3-Cyano-4-[(1-methylethyl)oxy]phenyl}-1,2,4-oxadiazol-3-yl)-1,2,4,5-tetrahydro-3H-3-benzazepin-3-yl]acetic acid]"
10,≥ 8.00,"CC(C)Oc1ccc(-c2nc(-c3ccc4c(c3)CCN(CC(=O)O)CC4)no2)cc1C(F)(F)F [Example 24, (7-{5-[4-[(1-Methylethyl)oxy]-3-(trifluoromethyl)phenyl]-1,2,4-oxadiazol-3-yl}-1,2,4,5-tetrahydro-3H-3-benzazepin-3-yl)acetic acid]"
11,> 7.00,"O=C(O)CN1CCc2ccc(-c3noc(-c4ccc(-c5ccccc5)c(C(F)(F)F)c4)n3)cc2CC1 [Example 25, (7-{5-[2-(Trifluoromethyl)-4-biphenylyl]-1,2,4-oxadiazol-3-yl}-1,2,4,5-tetrahydro-3H-3-benzazepin-3-yl)acetic acid]"
12,≥ 8.00,"CC(C)Oc1ccc(-c2nc(-c3ccc4c(c3)CCN(CCCC(=O)O)CC4)no2)cc1Cl [Example 26, 4-[7-(5-{3-Chloro-4-[(1-methylethyl)oxy]phenyl}-1,2,4-oxadiazol-3-yl)-1,2,4,5-tetrahydro-3H-3-benzazepin-3-yl]butanoic acid]"
13,≥ 8.00,"CC(C)Oc1ccc(-c2nc(-c3ccc4c(c3)CCN(CCCC(=O)O)CC4)no2)cc1C#N [Example 27, 4-[7-(5-{3-cyano-4-[(1-methylethyl)oxy]phenyl}-1,2,4-oxadiazol-3-yl)-1,2,4,5-tetrahydro-3H-3-benzazepin-3-yl]butanoic acid hydrochloride]"
